# Target: human MDM2 protein (amino acids 2-188) (Homo sapiens (Human), UniProt Q00987)
# Experiment: TR-FRET assay, p53-MDM2 Assay 2 (modified)
# Format: binding
# Conditions: TR-FRET; 0.1 nM MDM2, 0.1 nM Europium labeled streptavidin, Tecan genios Pro reader; read-out: IC50 p53-MDM2 Assay 2
# Procedure: The inhibition of p53-MDM2 and p53-MDM4 interactions is measured by time resolved fluorescence energy transfer (TR-FRET). Fluorescence energy transfer (or Foerster resonance energy transfer) describes an energy transfer between donor and acceptor fluorescent molecules. For this assay, human MDM2 protein (amino acids 2-188) and human MDM4 protein (amino acids 2-185), tagged with a C-terminal biotin moiety, are used in combination with a Europium labeled streptavidin (Perkin Elmer, Inc., Waltham, Mass., USA) serving as the donor fluorophore. The p53 derived, Cy5 labeled peptide Cy5-[…] (p53 aa18-26) is the energy acceptor. Upon excitation of the donor molecule at 340 nm, binding interaction between MDM2 or MDM4 and the p53 peptide induces energy transfer and enhanced response at the acceptor emission wavelength at 665 nm. […] The ratiometric FRET assay readout is calculated from the raw data of the two distinct fluorescence signals measured in time resolved mode (fluorescence 665 nm/fluorescence 620 nm×1000).
# After addition of 1.25 nM MDM2-biotinylated or 2.5 nM MDM4-biotinylated (internal preparations), and 0.625 nM Europium labeled streptavidin (Perkin Elmer), the solution is pre-incubated for 15 minutes at room temperature, then 10 nM Cy5-p53 peptide (internal preparation) is added before an incubation at room temperature for 15 minutes prior to reading the plate. For measurement of samples, a Victor II microplate reader (Perkin Elmer) is used with the following settings: Excitation 340 nm, Emission Donor 620 nm and Emission Acceptor 665 nm. IC50 values are calculated by curve fitting using XLfit. If not specified, reagents are purchased from Sigma-Aldrich Chemie GmBH, Buchs, Switzerland.
# Chain of human MDM2 protein (amino acids 2-188) (Q00987 2-188): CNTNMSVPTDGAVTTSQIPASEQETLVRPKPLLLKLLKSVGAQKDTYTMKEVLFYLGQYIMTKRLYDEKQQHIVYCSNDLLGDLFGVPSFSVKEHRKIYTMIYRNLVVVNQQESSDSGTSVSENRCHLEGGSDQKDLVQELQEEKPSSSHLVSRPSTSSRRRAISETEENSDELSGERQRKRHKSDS
row,Structure (SMILES),IC50
1,"CCn1c(-c2cnc(OC)nc2OC)cc2c1C(c1ccc(Cl)cc1)N(c1cc(Cl)ccc1C)C2=O (stereo not shown) [Example 45, 5-(5-Chloro-2-methyl-phenyl)-6-(4-chloro-phenyl)-2-(2,4-dimethoxy-pyrimidin-5-yl)-1-ethyl-5,6-dihydro-1H-pyrrolo[3,4-b]pyrrol-4-one]",87.6 nM
2,"COc1ccc(C(=O)N2CCOCC2)cc1-c1cc2c(n1C(C)C)C(c1ccc(Cl)cc1)N(c1cc(Cl)c(=O)n(C)c1)C2=O (stereo not shown) [Example 47, 5-(5-Chloro-1-methyl-6-oxo-1,6-dihydro-pyridin-3-yl)-6-(4-chloro-phenyl)-1-isopropyl-2-[2-methoxy-5-(morpholine-4-carbonyl)-phenyl]-5,6-dihydro-1H-pyrrolo[3,4-B]pyrrol-4-one]",0.15 nM
3,"COc1ncc(-c2cc3c(n2C(C)C)C(c2ccc(Cl)cc2)N(c2cc(Cl)c(=O)n(C)c2)C3=O)c(OC)n1 (stereo not shown) [Example 48, 5-(5-Chloro-1-methyl-6-oxo-1,6-dihydro-pyridin-3-yl)-6-(4-chloro-phenyl)-2-(2,4-dimethoxy-pyrimidin-5-yl)-1-isopropyl-5,6-dihydro-1H-pyrrolo[3,4-b]pyrrol-4-one]",0.188 nM
4,"CNC(=O)c1ccc(OC)c(-c2cc3c(n2C(C)C)C(c2ccc(Cl)cc2)N(c2cc(Cl)c(=O)n(C)c2)C3=O)c1 (stereo not shown) [Example 49, 3-[5-(5-Chloro-1-methyl-6-oxo-1,6-dihydro-pyridin-3-yl)-6-(4-chloro-phenyl)-1-isopropyl-4-oxo-1,4,5,6-tetrahydro-pyrrolo[3,4-b]pyrrol-2-yl]-4-methoxy-N-methyl-benzamide]",0.137 nM
5,"COc1nc(N)ncc1-c1cc2c(n1C(C)C)C(c1ccc(Cl)cc1)N(c1cc(Cl)c(=O)n(C)c1)C2=O (stereo not shown) [Example 51, 2-(2-Amino-4-methoxy-pyrimidin-5-yl)-5-(5-chloro-1-methyl-6-oxo-1,6-dihydro-pyridin-3-yl)-6-(4-chloro-phenyl)-1-isopropyl-5,6-dihydro-1H-pyrrolo[3,4-b]pyrrol-4-one]",0.461 nM
6,"COc1nc(N(C)C)ncc1-c1cc2c(n1C(C)C)C(c1ccc(Cl)cc1)N(c1cc(Cl)c(=O)n(C)c1)C2=O (stereo not shown) [Example 52, 5-(5-Chloro-1-methyl-6-oxo-1,6-dihydro-pyridin-3-yl)-6-(4-chloro-phenyl)-2-(2-dimethylamino-4-methoxy-pyrimidin-5-yl)-1-isopropyl-5,6-dihydro-1H-pyrrolo[3,4-b]pyrrol-4-one]",0.137 nM
7,"COc1ncc(-c2cc3c(n2C(C)C)C(c2ccc(Cl)cc2)N(c2ccc(F)c(Cl)c2)C3=O)c(OC)n1 (stereo not shown) [Example 54, 5-(3-Chloro-4-fluoro-phenyl)-6-(4-chloro-phenyl)-2-(2,4-dimethoxy-pyrimidin-5-yl)-1-isopropyl-5,6-dihydro-1H-pyrrolo[3,4-b]pyrrol-4-one]",0.267 nM
8,"COc1nc(N(C)C)ncc1-c1cc2c(n1C(C)C)C(c1ccc(Cl)cc1)N(c1ccc(F)c(Cl)c1)C2=O (stereo not shown) [Example 58, 5-(3-Chloro-4-fluoro-phenyl)-6-(4-chloro-phenyl)-2-(2-dimethylamino-4-methoxy-pyrimidin-5-yl)-1-isopropyl-5,6-dihydro-1H-pyrrolo[3,4-b]pyrrol-4-one]",0.458 nM
9,"COc1ccccc1-c1c(C#N)c2c(n1C(C)C)C(c1ccc(Cl)cc1)N(c1cc(Cl)ccc1C)C2=O (stereo not shown) [Example 59, 5-(5-Chloro-2-methyl-phenyl)-6-(4-chloro-phenyl)-1-isopropyl-2-(2-methoxy-phenyl)-4-oxo-1,4,5,6-tetrahydro-pyrrolo[3,4-b]pyrrole-3-carbonitrile]",0.163 nM
10,"COc1ccc(CC(=O)O)cc1-c1cc2c(n1C(C)C)C(c1ccc(Cl)cc1)N(c1cc(Cl)ccc1C)C2=O (stereo not shown) [Example 60, {3-[5-(5-Chloro-2-methyl-phenyl)-6-(4-chloro-phenyl)-1-isopropyl-4-oxo-1,4,5,6-tetrahydro-pyrrolo[3,4-b]pyrrol-2-yl]-4-methoxy-phenyl}-acetic acid]",0.155 nM
11,"CNS(=O)(=O)c1ccc(OC)c(-c2cc3c(n2C(C)C)C(c2ccc(Cl)cc2)N(c2cc(Cl)ccc2C)C3=O)c1 (stereo not shown) [Example 62, 3-[5-(5-Chloro-2-methyl-phenyl)-6-(4-chloro-phenyl)-1-isopropyl-4-oxo-1,4,5,6-tetrahydro-pyrrolo[3,4-b]pyrrol-2-yl]-4-methoxy-N-methyl-benzenesulfonamide]",0.169 nM

# Second part, the molecule after the results:
row,IC50,Structure (SMILES)
1,0.203 nM,"COc1ccccc1-c1cc2c(n1C(C)C)C(c1ccc(Cl)cc1)N(c1cc(Cl)c(=O)n(C)c1)C2=O (stereo not shown) [Example 46, 5-(5-Chloro-1-methyl-6-oxo-1,6-dihydro-pyridin-3-yl)-6-(4-chloro-phenyl)-1-isopropyl-2-(2-methoxy-phenyl)-5,6-dihydro-1H-pyrrolo[3,4-b]pyrrol-4-one]"
2,0.234 nM,"COc1ccc(C(=O)O)cc1-c1cc2c(n1C(C)C)C(c1ccc(Cl)cc1)N(c1cc(Cl)c(=O)n(C)c1)C2=O (stereo not drawn) [Example 50, 3-[5-(5-Chloro-1-methyl-6-oxo-1,6-dihydro-pyridin-3-yl)-6-(4-chloro-phenyl)-1-isopropyl-4-oxo-1,4,5,6-tetrahydro-pyrrolo[3,4S-b]pyrrol-2-yl]-4-methoxy-benzoic acid]"
3,0.323 nM,"CNC(=O)c1ccc(OC)c(-c2cc3c(n2C(C)C)C(c2ccc(Cl)cc2)N(c2ccc(F)c(Cl)c2)C3=O)c1 (stereo not shown) [Example 53, 3-[5-(3-Chloro-4-fluoro-phenyl)-6-(4-chloro-phenyl)-1-isopropyl-4-oxo-1,4,5,6-tetrahydro-pyrrolo[3,4-b]pyrrol-2-yl]-4-methoxy-N-methyl-benzamide]"
4,0.287 nM,"COc1ccc(C(=O)N2CCOCC2)cc1-c1cc2c(n1C(C)C)C(c1ccc(Cl)cc1)N(c1ccc(F)c(Cl)c1)C2=O (stereo not shown) [Example 55, 5-(3-Chloro-4-fluoro-phenyl)-6-(4-chloro-phenyl)-1-isopropyl-2-[2-methoxy-5-(morpholine-4-carbonyl)-phenyl]-5,6-dihydro-1H-pyrrolo[3,4-b]pyrrol-4-one]"
5,0.351 nM,"COc1ccc(C(=O)O)cc1-c1cc2c(n1C(C)C)C(c1ccc(Cl)cc1)N(c1ccc(F)c(Cl)c1)C2=O (stereo not shown) [Example 56, 3-[5-(3-Chloro-4-fluoro-phenyl)-6-(4-chloro-phenyl)-1-isopropyl-4-oxo-1,4,5,6-tetrahydro-pyrrolo[3,4-b]pyrrol-2-yl]-4-methoxy-benzoic acid]"
6,0.104 nM,"COc1ccc(C(N)=O)cc1-c1cc2c(n1C(C)C)C(c1ccc(Cl)cc1)N(c1cc(Cl)ccc1C)C2=O (stereo not shown) [Example 61, 3-[5-(5-Chloro-2-methyl-phenyl)-6-(4-chloro-phenyl)-1-isopropyl-4-oxo-1,4,5,6-tetrahydro-pyrrolo[3,4-b]pyrrol-2-yl]-4-methoxy-benzamide]"
7,8.13 nM,"COc1ccccc1-c1cc2c(n1C(C)C)C(c1ccc(Cl)cc1)N([C@H]1CC[C@H](O)CC1)C2=O (stereo partly drawn) [Example 63, 6-(4-Chloro-phenyl)-5-(trans-4-hydroxy-cyclohexyl)-1-isopropyl-2-(2-methoxy-phenyl)-5,6-dihydro-1H-pyrrolo[3,4-b]pyrrol-4-one]"
8,1 nM,"CNC(=O)c1ccc(OC)c(-c2cc3c(n2C(C)C)C(c2ccc(Cl)cc2)N([C@H]2CC[C@H](O)CC2)C3=O)c1 (stereo partly drawn) [Example 64, 3-[6-(4-Chloro-phenyl)-5-(trans-4-hydroxy-cyclohexyl)-1-isopropyl-4-oxo-1,4,5,6-tetrahydro-pyrrolo[3,4-b]pyrrol-2-yl]-4-methoxy-N-methyl-benzamide]"

# Reference: patent US9365576B2, “Pyrrolopyrrolidinone compounds” (Novartis AG, priority 2012, dated 2016)
